Values after ≈ are worked out from the molar mass of the structure shown. Like-named read-outs stand apart in the source and are kept apart here. Square brackets hold non-standard residues; d marks the D form. Peptide text beside a SMILES is read from it. Orn = NCCC[C@H](N)C(=O)O
Experiments:
[1] = system: Salmonella enterica; type: cell-based; settings: 24 h
Procedure: (§1) Incubations were kept at 37 °C for 24 h. Results are the average of three independent studies.

[2] = system: Escherichia coli; type: cell-based; settings: 24 h
Procedure: as §1

[3] = system: Acinetobacter baumannii; type: cell-based; settings: 24 h
Procedure: as §1

[4] = Cytotoxicity in mammalian cells (MTT assay); type: cell-based; settings: MRC-5 cytotoxicity (IC50)
Procedure: (§2) MRC-5 cells were grown in Eagle’s minimum essential medium (MEMα), supplemented with 10% fetal bovine serum (FBS). 96-well plates were seeded with 3 × 10^4 cells/well and cultured overnight in order to get cells adhered into the plate and then incubated with two-fold peptide serial dilutions. After 4 h of incubation, the medium containing the peptides was replaced by MEMα supplemented with FBS and 3-(4,5-dimethylthiazol-2-yl)-2,5-diphenyltetrazolium bromide (MTT) at 0.4 mg/mL and incubated for 150 min. Detection of formazan crystals in the living cells was done by cell disruption by addition of 200 μL of dimethyl sulfoxide (DMSO) followed by absorbance measuring at 600 nm in a Tecan Infinite F Nano+ microplate reader (Tecan, Germany). Results are the average of three independent studies.

[5] = system: MRC-5 cells; test: Cytotoxicity in mammalian cells (MTT assay); type: cell-based
Procedure: as §2

[6] = system: Shigella flexneri; settings: 50 μL from MIC wells seeded into Petri plates, 24 h; lowest concentration without detectable growth
Procedure: The antibiotic activity was defined by the minimum peptide concentration where the microorganism is unable to grow. The assay was done in polypropylene 96-well plates (Greiner, Frickenhausen, Germany) to avoid peptide binding to plate wells. Peptides were dissolved in water containing 0.4% w/v bovine serum albumin (BSA) and 0.02% v/v glacial acetic acid to prevent self-aggregation, following the reference protocol by Wiegand et al.,[42] based on the classical microtiter broth dilution recommended by the National Committee of Laboratory Safety and Standards (NCLSS). Initial bacteria inoculum was adjusted to 5 × 10^5 CFU/mL in Mueller-Hinton (MH) medium. Incubations were kept at 37 °C for 24 h. Results are the average of three independent studies. […] To determine the MBC, 50 μL from all wells were seeded into Petri plates and incubated for 24 h. The MBC concentration was attributed to the lowest concentration without detectable bacterial growth for each peptide.

[7] = system: Pseudomonas sp.; test: MIC of peptides incubated with human serum; type: cell-based; settings: peptide incubated with human serum 1:1; 10^6 cfu/mL Pseudomonas sp., 4 h
Procedure: as §1

[8] = system: Pseudomonas sp.; test: Minimum bactericidal concentration (MBC); type: cell-based; settings: 50 μL from MIC wells seeded into Petri plates, 24 h; lowest concentration without detectable growth
Procedure: as §1

[9] = system: horse red blood cells; test: Hemolytic activity; type: cell-based
Procedure: The peptide toxicity was determined detecting the disruption of horse red blood cells, following a previous assay report.[35] 10-fold diluted cells in PBS were centrifuged three times at 800g to eliminate the hemoglobin from disrupted cells. After the last resuspension, erythrocytes were incubated with the peptides for 4 h at 37 °C. The detection was done measuring the supernatant absorbance in a VICTOR3 multilabel plate reader (Perkin Elmer, Waltham, Massachusetts) at 540 nm in a microplate reader. Percentage of hemolysis was calculated through a pattern done with dilutions of total cell lysis done with a 1% Triton X-100 buffer. Results are the average of three independent studies.

[10] = system: Pseudomonas sp.; test: MIC, broth microdilution; type: cell-based; settings: Pseudomonas sp. ATCC 15915; Mueller-Hinton medium, 5 × 10^5 CFU/mL, 37 °C, 24 h; average of three independent studies
Procedure: (§3) Human serum was purchased from Sigma (St Louis, USA).
as §1

[11] = system: S. enterica; type: cell-based, Salmonella enterica; settings: 24 h
Procedure: as §3, §1

[12] = system: E. coli; type: cell-based, Escherichia coli; settings: 24 h
Procedure: as §3, §1

[13] = system: S. flexneri; settings: 24 h
Excerpt: Purified horse red blood cells were acquired from Thermo Fisher Scientific (Hampshire, England). Human serum was purchased from Sigma (St Louis, USA). E. coli was obtained from the Coli Genetic Stock Center (BW25113). S. flexneri (ATCC 29903), A. baumannii (ATCC 15308), Pseudomonas sp. (ATCC 15915), and S. enterica (ATCC 14028) were obtained from the CECT (Valencia, Spain). Clinical strains were supplied by the Vall d’Hebron Hospital (Barcelona, Spain). MRC5 fibroblasts were obtained from the Cytometry and Cell Culture Facility (SCAC, UAB) and originally purchased from ATCC.
The antibiotic activity was defined by the minimum peptide concentration where the microorganism is unable to grow. The assay was done in polypropylene 96-well plates (Greiner, Frickenhausen, Germany) to avoid peptide binding to plate wells. Peptides were dissolved in water containing 0.4% w/v bovine serum albumin (BSA) and 0.02% v/v glacial acetic acid to prevent self-aggregation, following the reference protocol by Wiegand et al.,[42] based on the classical microtiter broth dilution recommended by the […]. Initial bacteria inoculum was adjusted to 5 × 10^5 CFU/mL in Mueller-Hinton (MH) medium. Incubations were kept at 37 °C for 24 h. Results are the average of three independent studies. MIC assays in the presence of serum were performed by incubating the peptide with human serum at a 1:1 ratio. Then, 10^6 cfu/mL of Pseudomonas sp. were incubated with serial dilutions of the peptides for 4 h. To determine the MBC, 50 μL from all wells were seeded into Petri plates and incubated for 24 h. The MBC concentration was attributed to the lowest concentration without detectable bacterial growth for each peptide.

[14] = system: A. baumannii; type: cell-based, Acinetobacter baumannii; settings: 24 h
Procedure: as §3, §1

[15] = system: S. typhimurium 324; test: MIC, clinical bacterial strain; type: cell-based
Procedure: as §3, §1

[16] = system: E. coli 116878; test: MIC, clinical bacterial strain; type: cell-based
Procedure: as §3, §1

[17] = system: P. aeruginosa 827632; test: MIC, clinical bacterial strain; type: cell-based
Procedure: as §3, §1

[18] = system: A. baumannii 3880; test: MIC, clinical bacterial strain; type: cell-based
Procedure: as §3, §1

[19] = system: A. baumannii 3879; test: MIC, clinical bacterial strain; type: cell-based
Procedure: as §3, §1

[20] = system: A. baumannii 3878; test: MIC, clinical bacterial strain; type: cell-based
Procedure: as §3, §1

[21] = system: A. baumannii 3862; test: MIC, clinical bacterial strain; type: cell-based
Procedure: as §3, §1

[22] = system: P. aeruginosa 827651; test: MIC, clinical bacterial strain; type: cell-based
Procedure: as §3, §1

[23] = system: E. coli cf073; test: MIC, clinical bacterial strain; type: cell-based
Procedure: as §3, §1

[24] = system: S. typhimurium 365; test: MIC, clinical bacterial strain; type: cell-based
Procedure: as §3, §1

| Structure (SMILES) | MBC Salmonella enterica [1] | MBC Escherichia coli [2] | MBC Acinetobacter baumannii [3] | IC50 [4] | MBC Shigella flexneri [6] | MBC Pseudomonas sp. [8] | hemolysis % (250 μM peptide) ([9]; red cells of horse, 4 h, 250) | MIC Pseudomonas sp. [10] | MIC S. enterica [11] | MIC E. coli [12] | MIC S. flexneri [13] | MIC A. baumannii [14] | other results |
| --- | --- | --- | --- | --- | --- | --- | --- | --- | --- | --- | --- | --- | --- |
| CC[C@H](C)[C@H](NC(=O)[C@H](C)NC(=O)[C@H](CCCN)NC(=O)[C@H](CCSC)NC(=O)[C@H](C)NC(=O)[C@@H](NC(=O)[C@@H](NC(=O)[C@H](CCCN)NC(=O)[C@@H]1CCCN1C(=O)[C@H](CO)NC(=O)[C@@H](NC(=O)[C@H](Cc1c[nH]cn1)NC(=O)[C@H](CCC(N)=O)NC(=O)[C@@H](NC(=O)[C@H](C)NC(=O)[C@H](Cc1ccccc1)NC(=O)[C@H](Cc1c[nH]c2ccccc12)NC(=O)[C@H](CCC(N)=O)NC(=O)[C@H](C)NC(=O)[C@H](CCCN)NC(=O)[C@@H](NC(=O)[C@H](Cc1ccccc1)NC(=O)[C@@H]1CCCN1C(=O)[C@@H](N)CCCN)[C@@H](C)O)[C@@H](C)CC)[C@@H](C)CC)[C@@H](C)O)[C@@H](C)CC)C(=O)N[C@@H](CC(N)=O)C(=O)N[C@@H](CC(N)=O)C(=O)N[C@@H](Cc1ccc(O)cc1)C(=O)N[C@@H](CCCN)C(=O)N[C@@H](Cc1c[nH]c2ccccc12)C(=O)N[C@@H](CCCN)C(N)=O [peptide 2] (H-[Orn]PFT[Orn]AQWFAIQHISP[Orn]TIAM[Orn]AINNY[Orn]W[Orn]-NH2) | 25 µM (≈ 87.6 µg/mL) | 6.25 µM (≈ 21.9 µg/mL) | 6.25 µM (≈ 21.9 µg/mL) | ≤ 180 µM | 12.5 µM (≈ 43.8 µg/mL) | 6.25 µM (≈ 21.9 µg/mL) | 10 ± 2% | 6.25 µM (≈ 21.9 µg/mL) | 25 µM (≈ 87.6 µg/mL) | 6.25 µM (≈ 21.9 µg/mL) | 12.5 µM (≈ 43.8 µg/mL) | 6.25 µM (≈ 21.9 µg/mL) | IC50 ([5]; 4 h): 113 ± 8 µM; MIC in Pseudomonas sp., peptides incubated with human serum [7]: 50 µM; hemolysis % (250 μM peptide) [9]: 10% |
| CC[C@H](C)[C@H](NC(=O)[C@H](C)NC(=O)[C@H](CCCN)NC(=O)[C@H](CCSC)NC(=O)[C@H](C)NC(=O)[C@@H](NC(=O)[C@@H](NC(=O)[C@H](CCCN)NC(=O)[C@@H]1CCCN1C(=O)[C@H](CO)NC(=O)[C@@H](NC(=O)[C@H](Cc1c[nH]cn1)NC(=O)[C@H](CCC(N)=O)NC(=O)[C@@H](NC(=O)[C@H](C)NC(=O)[C@H](Cc1ccccc1)NC(=O)[C@H](Cc1c[nH]c2ccccc12)NC(=O)[C@H](CCC(N)=O)NC(=O)[C@H](C)NC(=O)[C@H](CCCN)NC(=O)[C@@H](NC(=O)[C@@H](N)Cc1ccccc1)[C@@H](C)O)[C@@H](C)CC)[C@@H](C)CC)[C@@H](C)O)[C@@H](C)CC)C(=O)N[C@@H](CC(N)=O)C(=O)N[C@@H](CC(N)=O)C(=O)N[C@@H](Cc1ccc(O)cc1)C(=O)N[C@@H](CCCN)C(=O)N[C@@H](Cc1c[nH]c2ccccc12)C(=O)N[C@@H](CCCN)C(N)=O [peptide 5] (H-FT[Orn]AQWFAIQHISP[Orn]TIAM[Orn]AINNY[Orn]W[Orn]-NH2) | > 100 µM | 25 µM (≈ 82.3 µg/mL) | > 100 µM | > 300 µM | 50 µM (≈ 165 µg/mL) | 25 µM (≈ 82.3 µg/mL) | 11 ± 4% | 25 µM (≈ 82.3 µg/mL) | >100 µM | 25 µM (≈ 82.3 µg/mL) | 50 µM (≈ 165 µg/mL) | >100 µM | MRC-5 cytotoxicity (IC50) [5]: No toxicity was detected |
| CC[C@H](C)[C@H](NC(=O)[C@H](C)NC(=O)[C@H](CCCN)NC(=O)[C@H](CCSC)NC(=O)[C@H](C)NC(=O)[C@@H](NC(=O)[C@@H](NC(=O)[C@H](CCCN)NC(=O)[C@@H]1CCCN1C(=O)[C@H](CO)NC(=O)[C@@H](NC(=O)[C@H](Cc1c[nH]cn1)NC(=O)[C@H](CCC(N)=O)NC(=O)[C@@H](NC(=O)[C@H](C)NC(=O)[C@H](Cc1ccccc1)NC(=O)[C@H](Cc1c[nH]c2ccccc12)NC(=O)[C@H](CCC(N)=O)NC(=O)[C@H](C)NC(=O)[C@H](CCCN)NC(=O)[C@@H](NC(=O)[C@H](Cc1ccccc1)NC(=O)[C@H]1CCCN1C(=O)[C@@H](N)CCCN)[C@@H](C)O)[C@@H](C)CC)[C@@H](C)CC)[C@@H](C)O)[C@@H](C)CC)C(=O)N[C@@H](CC(N)=O)C(=O)N[C@@H](CC(N)=O)C(=O)N[C@@H](Cc1ccc(O)cc1)C(=O)N[C@@H](CCCN)C(=O)N[C@@H](Cc1c[nH]c2ccccc12)C(=O)N[C@@H](CCCN)C(N)=O [peptide 6] (H-[Orn][dP]FT[Orn]AQWFAIQHISP[Orn]TIAM[Orn]AINNY[Orn]W[Orn]-NH2) | 50 µM (≈ 175 µg/mL) | 3.13 µM (≈ 11 µg/mL) | 12.5 µM (≈ 43.8 µg/mL) | 230 ± 40 µM | 50 µM (≈ 175 µg/mL) | 1.56 µM (≈ 5.47 µg/mL) | 1.1 ± 0.9% | 1.56 µM (≈ 5.47 µg/mL) | 50 µM (≈ 175 µg/mL) | 3.13 µM (≈ 11 µg/mL) | 50 µM (≈ 175 µg/mL) | 12.5 µM (≈ 43.8 µg/mL) | MIC S. typhimurium 324 [15]: 25 µM (≈ 87.6 µg/mL); MIC E. coli 116878 [16]: 25 µM (≈ 87.6 µg/mL); MIC P. aeruginosa 827632 [17]: >100 µM; MIC A. baumannii 3880 [18]: 12.5 µM (≈ 43.8 µg/mL); MIC A. baumannii 3879 [19]: 3.13 µM (≈ 11 µg/mL); MIC A. baumannii 3878 [20]: 0.78 µM (≈ 2.73 µg/mL); MIC A. baumannii 3862 [21]: 1.56 µM (≈ 5.47 µg/mL); MIC P. aeruginosa 827651 [22]: 25 µM (≈ 87.6 µg/mL); MIC E. coli cf073 [23]: 6.25 µM (≈ 21.9 µg/mL); MIC S. typhimurium 365 [24]: 25 µM (≈ 87.6 µg/mL) |

Reference: article PMC8483441 (Journal of Medicinal Chemistry, 2021)
